Measurements: patent US8586505B2 (SDS Biotech K. K., priority 2009, dated 2013)

Legend:
Type in all cases: in vivo
[1] = system: Phytophthora infestans; assay: whole plant or invertebrate; details: in Solanum lycopersicum, 96 h, read-out: Determination of control effect (preventive value)
[2] = system: Sphaerotheca fuliginea; assay: Test of examining control effect on Sphaerotheca fuliginea (potted cucumber plants); details: Podosphaera fuliginea, 336 h; 10% wettable powder adjusted to 125 ppm, 15 ml/pot sprayed on potted cucumber plants one day before spray inoculation; assessed after 14 days in greenhouse; read-out: Determination of control effect (preventive value) on Sphaerotheca fuliginea
Method: (§1) Calculation of Preventive Value: Preventive value={(untreated lesion area rate−treated lesion area rate)/untreated lesion area rate}×100
(§2) Using the thus calculated preventive value, the control effect of each compound was determined in accordance with the following standards.
(§3) High control effect: 100%≧preventive value≧60%
(§4) Low control effect: 60%>preventive value≧0%
Using a spray gun, an agent solution prepared by adjusting a 10% wettable powder of each sample compound to 125 ppm (hereinafter referred to as a “sample agent solution”) was sprayed to potted cucumber plants (variety: Sagamihanjiro, 2nd leave stage) in a concentration of 15 ml/pot. One day after the spraying, a conidial suspension of Sphaerotheca fuliginea (conidial concentration: 1.0×10^5 cells/ml) was applied to the plants by spray inoculation. The plants were left in a greenhouse for 14 days, so that they were fully infected with the aforementioned disease. Thereafter, the disease level on each leaf was compared with that on an untreated leaf, and the control effect of each compound was determined in the same manner as in Example 3(1).

[3] = system: Pseudoperonospora cubensis; assay: Test of examining control effect on Pseudoperonospora cubensis (potted cucumber plants); details: 96 h, 10% wettable powder adjusted to 125 ppm, 15 ml/pot sprayed on potted cucumber plants one day before spray inoculation, assessed after 1 day wet chamber and 3 days greenhouse, read-out: Determination of control effect (preventive value) on Pseudoperonospora cubensis
Method: as §1, §2, §3, §4
Using a spray gun, an agent solution prepared by adjusting a 10% wettable powder of each sample compound to 125 ppm (hereinafter referred to as a “sample agent solution”) was sprayed to potted cucumber plants (variety: Sagamihanjiro, 2.5 leave stage) in a concentration of 15 ml/pot. One day after the spraying, a conidial suspension of Pseudoperonospora cubensis (conidial concentration: 1.0×10^4 cells/ml) was applied to the plants by spray inoculation. After completion of the inoculation, the plants were left at 21° C. under wet chamber conditions for 1 day, and were then left in a greenhouse for 3 days, so that they were fully infected with the aforementioned disease. Thereafter, the disease level on each leaf was compared with that on an untreated leaf, and the control effect of each compound was determined in the same manner as in Example 3(1).

Row | SMILES | pest or weed control at 125 ppm [1] | pest or weed control at 125 µg/mL [2] | pest or weed control at 125 µg/mL [3]
1 | CC(C)(C)[Si](C)(C)OCc1nc(C#CCCNc2ncnc3sccc23)cs1 [compound 71] | 60 to 100% | 60 to 100% | 60 to 100%
2 | COCc1nc(C#CCCNc2ncnc3sccc23)cs1 [compound 72] | 60 to 100% | 60 to 100% | 60 to 100%
3 | C#CCOCc1nc(C#CCCNc2ncnc3sccc23)cs1 [compound 74] | 60 to 100% | 60 to 100% | 60 to 100%
4 | C(#Cc1csc(Cc2ccccc2)n1)CCNc1ncnc2sccc12 [compound 75, 4-[4-(2-Benzylthiazol-4-yl)-3-butynylamino]thieno[2,3-d]pyrimidine] | 60 to 100% | 60 to 100% | 60 to 100%
5 | C(#Cc1csc(-c2cccs2)n1)CCNc1ncnc2sccc12 [compound 79] | 0 to 60% | 60 to 100% | 60 to 100%
6 | C(#Cc1csc(Oc2ccccc2)n1)CCNc1ncnc2sccc12 [compound 83, 4-[4-(2-Phenoxythiazol-4-yl)-3-butynylamino]thieno[2,3-d]pyrimidine] | 0 to 60% | 60 to 100% | 60 to 100%
7 | CN1C(=O)c2ccc(C#CCCNc3ncnc4sccc34)cc2C1=O [compound 84] | 60 to 100% | 0 to 60% | 60 to 100%
8 | COc1ccc2nc(C#CCCNc3ncnc4sccc34)sc2c1 [compound 85] | 60 to 100% | 60 to 100% | 60 to 100%
9 | C#CCCNc1ncnc2ccccc12 [compound 86] | 0 to 60% | 60 to 100% | 60 to 100%
10 | C[Si](C)(C)C#CCCNc1ncnc2ccccc12 [compound 87] | 60 to 100% | 60 to 100% | 60 to 100%
11 | C(#CC1CC1)CCNc1ncnc2ccccc12 [compound 90] | 0 to 60% | 60 to 100% | 60 to 100%
12 | C(#CC1CCCCC1)CCNc1ncnc2ccccc12 [compound 91] | 60 to 100% | 60 to 100% | 60 to 100%
13 | C/C(C#N)=C/C#CCCNc1ncnc2ccccc12 [compound 93] | 60 to 100% | 60 to 100% | 60 to 100%
14 | C(#CC1=CCCCC1)CCNc1ncnc2ccccc12 [compound 94] | 0 to 60% | 60 to 100% | 60 to 100%
15 | Clc1ccccc1C#CCCNc1ncnc2ccccc12 [compound 97] | 60 to 100% | 60 to 100% | 60 to 100%
16 | Ic1ccc(C#CCCNc2ncnc3ccccc23)cc1 [compound 98] | 0 to 60% | 60 to 100% | 60 to 100%
17 | FCc1ccccc1C#CCCNc1ncnc2ccccc12 [compound 99] | 60 to 100% | 60 to 100% | 60 to 100%
18 | FC(F)c1ccccc1C#CCCNc1ncnc2ccccc12 [compound 100] | 60 to 100% | 60 to 100% | 60 to 100%
19 | FC(F)(F)c1ccccc1C#CCCNc1ncnc2ccccc12 [compound 101] | 60 to 100% | 60 to 100% | 60 to 100%
20 | N#Cc1ccccc1C#CCCNc1ncnc2ccccc12 [compound 102] | 60 to 100% | 60 to 100% | 60 to 100%
21 | CCc1ccccc1C#CCCNc1ncnc2ccccc12 [compound 103] | 60 to 100% | 60 to 100% | 60 to 100%
22 | CC(C)c1ccccc1C#CCCNc1ncnc2ccccc12 [compound 104] | 60 to 100% | 60 to 100% | 60 to 100%
23 | C=Cc1ccc(C#CCCNc2ncnc3ccccc23)cc1 [compound 110] | 60 to 100% | 60 to 100% | 60 to 100%

Row | SMILES | pest or weed control at 125 ppm [1] | pest or weed control at 125 µg/mL [2] | pest or weed control at 125 µg/mL [3]
24 | C[Si](C)(C)c1ccc(C#CCCNc2ncnc3ccccc23)cc1 [compound 111] | 0 to 60% | 60 to 100% | 60 to 100%
25 | C(#Cc1ccccc1-c1ccccc1)CCNc1ncnc2ccccc12 [compound 114] | 0 to 60% | 60 to 100% | 60 to 100%
26 | COc1ccccc1C#CCCNc1ncnc2ccccc12 [compound 115] | 60 to 100% | 60 to 100% | 60 to 100%
27 | CSc1ccc(C#CCCNc2ncnc3ccccc23)cc1 [compound 117] | 60 to 100% | 60 to 100% | 60 to 100%
28 | CC(C)Oc1ccccc1C#CCCNc1ncnc2ccccc12 [compound 119] | 60 to 100% | 60 to 100% | 60 to 100%
29 | COCOc1ccc(C#CCCNc2ncnc3ccccc23)cc1 [compound 121] | 60 to 100% | 60 to 100% | 60 to 100%
30 | CN(C)S(=O)(=O)c1ccc(C#CCCNc2ncnc3ccccc23)cc1 [compound 122] | 0 to 60% | 0 to 60% | 60 to 100%
31 | CS(=O)(=O)Nc1ccc(C#CCCNc2ncnc3ccccc23)cc1 [compound 123] | 0 to 60% | 0 to 60% | 60 to 100%
32 | CN(c1ccc(C#CCCNc2ncnc3ccccc23)cc1)S(C)(=O)=O [compound 124] | 0 to 60% | 0 to 60% | 60 to 100%
33 | COC(=O)N(OC)c1ccccc1C#CCCNc1ncnc2ccccc12 [compound 125] | 60 to 100% | 0 to 60% | 60 to 100%
34 | CNC(=O)c1ccc(C#CCCNc2ncnc3ccccc23)cc1 [compound 126] | 60 to 100% | 0 to 60% | 60 to 100%
35 | O=C(O)c1ccc(C#CCCNc2ncnc3ccccc23)cc1 [compound 127] | 60 to 100% | 60 to 100% | 60 to 100%
36 | CC(=O)c1ccc(C#CCCNc2ncnc3ccccc23)cc1 [compound 128] | 60 to 100% | 60 to 100% | 60 to 100%
37 | OCc1ccccc1C#CCCNc1ncnc2ccccc12 [compound 130] | 60 to 100% | 60 to 100% | 60 to 100%
38 | COCc1ccccc1C#CCCNc1ncnc2ccccc12 [compound 133] | 60 to 100% | 60 to 100% | 60 to 100%
39 | FC(F)OCc1ccccc1C#CCCNc1ncnc2ccccc12 [compound 134] | 60 to 100% | 60 to 100% | 60 to 100%
40 | COCc1cccc(C#CCCNc2ncnc3ccccc23)c1 [compound 135] | 0 to 60% | 0 to 60% | 60 to 100%
41 | COCc1ccc(C#CCCNc2ncnc3ccccc23)cc1 [compound 136] | 0 to 60% | 60 to 100% | 60 to 100%
42 | COC(C)c1ccccc1C#CCCNc1ncnc2ccccc12 (stereo not drawn) [compound 137] | 0 to 60% | 60 to 100% | 60 to 100%
43 | COCc1cc(F)ccc1C#CCCNc1ncnc2ccccc12 [compound 139] | 60 to 100% | 60 to 100% | 60 to 100%
44 | COCc1cc(Cl)ccc1C#CCCNc1ncnc2ccccc12 [compound 140] | 60 to 100% | 60 to 100% | 60 to 100%
45 | COCc1cccc(F)c1C#CCCNc1ncnc2ccccc12 [compound 141] | 60 to 100% | 60 to 100% | 60 to 100%
46 | COCc1ccc(F)cc1C#CCCNc1ncnc2ccccc12 [compound 142] | 60 to 100% | 60 to 100% | 60 to 100%
